Assay results taken from patent US11654199B2 (BOLT BIOTHERAPEUTICS, INC., priority 2019, dated 2023).
pEC50: −log10 of the molar value.

Tests used:
[1] = target: T1, human TLR8 (Homo sapiens, UniProt Q9NR97); assay: HEK293 NFKB reporter assay, human TLR8; format: cell-based; settings: HEK293 NFKB reporter cells expressing human TLR8; read-out: HEK293 hTLR8 EC50
T1 construct: host or cells: HEK293 reporter cells
T1 sequence (Q9NR97 27-1041): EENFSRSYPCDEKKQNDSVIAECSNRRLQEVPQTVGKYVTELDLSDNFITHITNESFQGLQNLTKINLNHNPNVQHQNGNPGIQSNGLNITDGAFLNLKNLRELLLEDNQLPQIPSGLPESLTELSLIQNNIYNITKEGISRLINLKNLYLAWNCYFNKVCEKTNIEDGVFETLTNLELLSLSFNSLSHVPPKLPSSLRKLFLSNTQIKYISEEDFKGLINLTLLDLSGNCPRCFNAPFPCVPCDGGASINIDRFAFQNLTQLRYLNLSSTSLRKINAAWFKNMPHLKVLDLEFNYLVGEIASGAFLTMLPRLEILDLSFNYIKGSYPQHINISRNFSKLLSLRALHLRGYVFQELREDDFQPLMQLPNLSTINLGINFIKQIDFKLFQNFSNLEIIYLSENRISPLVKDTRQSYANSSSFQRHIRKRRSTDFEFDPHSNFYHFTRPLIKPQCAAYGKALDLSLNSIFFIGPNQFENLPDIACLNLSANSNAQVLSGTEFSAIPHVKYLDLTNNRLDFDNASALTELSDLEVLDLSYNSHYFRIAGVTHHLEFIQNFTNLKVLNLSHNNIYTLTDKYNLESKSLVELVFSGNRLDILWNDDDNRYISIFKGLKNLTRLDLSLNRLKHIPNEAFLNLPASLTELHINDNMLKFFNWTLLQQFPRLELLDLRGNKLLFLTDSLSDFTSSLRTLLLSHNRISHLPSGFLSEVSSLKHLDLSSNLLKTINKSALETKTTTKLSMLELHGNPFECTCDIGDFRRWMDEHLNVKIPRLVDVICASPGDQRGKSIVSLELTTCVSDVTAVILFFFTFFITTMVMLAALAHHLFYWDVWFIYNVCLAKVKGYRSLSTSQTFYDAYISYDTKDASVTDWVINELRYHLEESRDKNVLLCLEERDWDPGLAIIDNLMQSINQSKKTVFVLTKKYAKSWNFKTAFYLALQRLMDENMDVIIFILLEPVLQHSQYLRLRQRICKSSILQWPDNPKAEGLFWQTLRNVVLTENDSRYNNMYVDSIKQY
Description: (§1) Each compound was synthesized, purified, and characterized by mass spectrometry and shown to have the mass indicated. Additional experimental procedures are found in the Examples. Activity against HEK293 NFKB reporter cells expressing human TLR7 or human TLR8 was measured according to Example 202.
(§2) HEK293 reporter cells expressing human TLR7 or human TLR8 were purchased from Invivogen and vendor protocols were followed for cellular propagation and experimentation. Briefly, cells were grown to 80-85% confluence at 5% CO2 in DMEM supplemented with 10% FBS, Zeocin, and Blasticidin. Cells were then seeded in 96-well flat plates at 4×10^4 cells/well with substrate containing HEK detection medium and immunostimulatory molecules. Activity was measured using a plate reader at 620-655 nm wavelength.

[2] = target: T2, human TLR7 (Homo sapiens, UniProt Q9NYK1); assay: HEK293 NFKB reporter assay, human TLR7; format: cell-based; settings: HEK293 NFKB reporter cells expressing human TLR7; read-out: HEK293 hTLR7 EC50
T2 construct: host or cells: HEK293 reporter cells
T2 sequence (Q9NYK1 27-1049): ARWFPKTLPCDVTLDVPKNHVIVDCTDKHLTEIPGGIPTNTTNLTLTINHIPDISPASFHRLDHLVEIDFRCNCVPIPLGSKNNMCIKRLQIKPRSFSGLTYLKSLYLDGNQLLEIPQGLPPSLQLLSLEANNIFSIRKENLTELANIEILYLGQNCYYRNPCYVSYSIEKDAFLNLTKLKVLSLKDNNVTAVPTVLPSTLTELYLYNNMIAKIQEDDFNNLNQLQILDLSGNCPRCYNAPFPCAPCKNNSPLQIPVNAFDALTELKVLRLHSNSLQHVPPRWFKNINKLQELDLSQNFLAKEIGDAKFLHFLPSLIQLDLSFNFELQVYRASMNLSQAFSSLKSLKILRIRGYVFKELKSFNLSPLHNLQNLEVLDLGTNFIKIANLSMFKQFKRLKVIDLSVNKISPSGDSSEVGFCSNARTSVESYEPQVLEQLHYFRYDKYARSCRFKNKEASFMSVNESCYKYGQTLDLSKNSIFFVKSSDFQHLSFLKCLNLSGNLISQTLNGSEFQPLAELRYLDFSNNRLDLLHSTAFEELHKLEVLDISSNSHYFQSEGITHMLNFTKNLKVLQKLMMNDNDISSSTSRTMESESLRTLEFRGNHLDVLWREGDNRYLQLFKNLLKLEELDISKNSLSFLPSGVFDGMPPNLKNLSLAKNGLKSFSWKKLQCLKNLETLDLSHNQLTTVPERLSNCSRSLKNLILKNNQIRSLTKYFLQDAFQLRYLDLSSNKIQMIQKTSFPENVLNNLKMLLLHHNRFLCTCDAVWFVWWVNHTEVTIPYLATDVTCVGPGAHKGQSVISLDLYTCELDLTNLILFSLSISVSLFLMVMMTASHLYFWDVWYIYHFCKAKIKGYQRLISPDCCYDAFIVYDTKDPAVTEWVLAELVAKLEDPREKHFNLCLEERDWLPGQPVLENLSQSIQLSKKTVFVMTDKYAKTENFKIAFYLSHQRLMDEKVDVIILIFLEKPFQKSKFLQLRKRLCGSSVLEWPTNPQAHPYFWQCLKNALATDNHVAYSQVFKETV
Description: as §1, §2

SMILES | pEC50 [1] | pEC50 [2]
CCCN(Cc1ccc(CN)c(C(F)(F)F)c1)C(=O)C1=Cc2sccc2N=C(N)C1 | 7.46 | 6.04
CCCN(CCC)C(=O)C1=Cc2sccc2N=C(N)C1 [TAZ-2, 5-amino-N,N-dipropyl-6H-thieno[3,2-b]azepine-7-carboxamide] | 5.62 | 
CCCN(CC#CCNC(=O)OC(C)(C)C)C(=O)C1=Cc2sc(Br)cc2N=C(N)C1 [TAZ-10, tert-butyl N-[4-[(5-amino-2-bromo-6H-thieno[3,2-b]azepine-7-carbonyl)-propyl-amino]but-2-ynyl]carbamate] |  | 5.11
CCCN(CCC)C(=O)C1=Cc2sc(CCCCCN)cc2N=C(N)C1 [TAZ-14, 5-amino-2-(5-aminopentyl)-N,N-dipropyl-6H-thieno [3,2-b]azepine-7-carboxamide] | 5.31 | 
CCCN(CC#CCNC(=O)OC(C)(C)C)C(=O)C1=Cc2sccc2N=C(N)C1 [TAZ-16, tert-butyl N-[4-[(5-amino-6H-thieno[3,2-b]azepine-7-carbonyl)-propyl-amino]but-2-ynyl]carbamate] | 5.21 | 
CCCN(CC#CCN)C(=O)C1=Cc2sccc2N=C(N)C1 [TAZ-17, 5-amino-N-(4-aminobut-2-ynyl)-N-propyl-6H-thieno[3,2-b]azepine-7-carboxamide] | 5.39 | 
CCCN(Cc1ccc(CN)cc1)C(=O)C1=Cc2sccc2N=C(N)C1 [TAZ-30, 5-amino-N-(4-(aminomethyl)benzyl)-N-propyl-6H-thieno[3,2-b]azepine-7-carboxamide] | 6.19 | 
CCCN(Cc1ccc(CN2CCNCC2)cc1)C(=O)C1=Cc2sccc2N=C(N)C1 [TAZ-37] |  | < 5.05
CCCN(Cc1ccc(CNC)cc1)C(=O)C1=Cc2sc(CCCCCN(C)C)cc2N=C(N)C1 [TAZ-65, 5-amino-2-[5-(dimethylamino)pentyl]-N-[[4-(methylaminomethyl)phenyl]methyl]-N-propyl-6H-thieno[3,2-b]azepine-7-carboxamide] | 6.51 | 
CCCN(C[C@H]1C[C@H](CN)C1)C(=O)C1=Cc2sccc2N=C(N)C1 [TAZ-69] | 5.37 | 
CCCN(CCC)C(=O)C1=Cc2sc(COCCCN)cc2N=C(N)C1 [TAZ-73] |  | < 5.05
CCCN(CCC)C(=O)C1=Cc2sc(COCCN)cc2N=C(N)C1 [TAZ-81] | 5.10 | 
CCCN(CCC)C(=O)C1=Cc2sc(CNC(=O)CN)cc2N=C(N)C1 [TAZ-92] | 5.55 | 
CCCN(C[C@H]1CC[C@H](CN)CC1)C(=O)C1=Cc2sccc2N=C(N)C1 [TAZ-97] | < 5.05 | 
CCCN(C[C@H]1CC[C@H](CNC(=O)OC(C)(C)C)CC1)C(=O)C1=Cc2sccc2N=C(N)C1 [TAZ-98] | 6.20 | 
CCCN(C(=O)C1=Cc2sccc2N=C(N)C1)N(C)CC [TAZ-100] | < 5.05 | 
CCCN(OCc1ccc(OC)cc1)C(=O)C1=Cc2sccc2N=C(N)C1 [TAZ-101] | 6.69 | 
CN(C)Cc1ccc(CN(CCC(F)(F)F)C(=O)C2=Cc3sc(CCCCCNC(=O)OC(C)(C)C)cc3N=C(N)C2)cc1 [TAZ-116] |  | 5.79
CCCN(C[C@H]1CC[C@@H](CN)CC1)C(=O)C1=Cc2sccc2N=C(N)C1 [TAZ-118] | 5.35 | 
CCCN(C[C@H]1CC[C@@H](CNC(=O)OC(C)(C)C)CC1)C(=O)C1=Cc2sccc2N=C(N)C1 [TAZ-119] |  | 5.54
CCCN(C(=O)C1=Cc2sc(CCCCCNC(=O)OC(C)(C)C)cc2N=C(N)C1)C1CC1 [TAZ-123] |  | 5.33
CCCN(CC1CC1)C(=O)C1=Cc2sc(CCCCCNC(=O)OC(C)(C)C)cc2N=C(N)C1 [TAZ-125] |  | 5.57

SMILES | pEC50 [1] | pEC50 [2]
CCCN(CCCNC(=O)CC(C)(C)C)C(=O)C1=Cc2sc(CN3CCNCC3)cc2N=C(N)C1 [TAZ-139] |  | 5.38
CCCN(CCCNC(=O)C(C)(C)C)C(=O)C1=Cc2sc(CCCCCN)cc2N=C(N)C1 [TAZ-142] |  | 6.08
CCCN(Cc1ccc(CN(C)C)cc1C(F)(F)F)C(=O)C1=Cc2sc(CCCCCNC(=O)OC(C)(C)C)cc2N=C(N)C1 [TAZ-143] |  | 5.72
CCCN(CCCNC(=O)OC1CCC1)C(=O)C1=Cc2sc(CCC3CCN(C(=O)OC(C)(C)C)CC3)cc2N=C(N)C1 [TAZ-167] |  | 5.50
CCCN(CCC)C(=O)C1=Cc2scc(C)c2N=C(N)C1 [TAZ-168] | 5.41 | 
CCCN(CCCNC(=O)OC1CCC1)C(=O)C1=Cc2sc(CN3CCNCC3)cc2N=C(N)C1 [TAZ-169] |  | 5.50
CCCN(OCC)C(=O)C1=Cc2sc(C#CC3CCN(C(=O)OC(C)(C)C)CC3)cc2N=C(N)C1 [TAZ-173] |  | 5.11
CCCN(OCC)C(=O)C1=Cc2sc(CC3CCN(C(=O)OC(C)(C)C)CC3)cc2N=C(N)C1 [TAZ-179] | 5.59 | 
CCCN(CCCNC(=O)OC1CCC1)C(=O)C1=Cc2sc(CN3CCN(c4ccc(C(=O)OC)cc4)CC3)cc2N=C(N)C1 [TAZ-180] |  | 5.44
CCCN(CCCNC(=O)OC1CCC1)C(=O)C1=Cc2sc(CC3CNC3)cc2N=C(N)C1 [TAZ-181] |  | 5.69
CCCN(CCCNC(=O)OC1CCC1)C(=O)C1=Cc2sc(CC3CCNCC3)cc2N=C(N)C1 [TAZ-185, cyclobutyl N-[3-[[5-amino-2-(4-piperidylmethyl)-6H-thieno[3,2-b]azepine-7-carbonyl]-propyl-amino]propyl]carbamate] |  | 5.43
CCCN(OCC)C(=O)C1=Cc2sc(C#CC3CN(C(=O)OC(C)(C)C)C3)cc2N=C(N)C1 [TAZ-187] | 6.02 | 
CCCN(OCC)C(=O)C1=Cc2sc(C#CC3(O)CN(C(=O)OC(C)(C)C)C3)cc2N=C(N)C1 [TAZ-188] | 5.11 | 
CCCN(CCCNC(=O)OC1CCC1)C(=O)C1=Cc2sc(CCC3CNC3)cc2N=C(N)C1 [TAZ-197] |  | 5.74
CCCN(OCC)C(=O)C1=Cc2sc(CN3Cc4ccc(NC(=O)CCN)cc4C3)cc2N=C(N)C1 [TAZ-201] | 5.53 | 
CCCN(OCC)C(=O)C1=Cc2sc(CN3CC(CN)C3)cc2N=C(N)C1 [TAZ-211] | 5.36 | 
CCCN(OCC)C(=O)C1=Cc2sc(CN3C[C@@H]4CN(C(=O)OC(C)(C)C)C[C@@H]4C3)cc2N=C(N)C1 [TAZ-242] | 5.42 | 
CCCN(OCC)C(=O)C1=Cc2sc(CN3CCC(N)CC3)cc2N=C(N)C1 [TAZ-243] | 6.79 | 
CCCN(OCC)C(=O)C1=Cc2sc(CN3CC4(CCN4Cc4ccccc4)C3)cc2N=C(N)C1 [TAZ-246] | 5.96 | 
CCCN(OCC)C(=O)C1=Cc2sc(CN3C[C@H]4CNC[C@H]4C3)cc2N=C(N)C1 [TAZ-247] | 6.38 | 
CCCN(OCC)C(=O)C1=Cc2sc(CN3C[C@H]4CN(C(=O)OC(C)(C)C)C[C@@H]4C3)cc2N=C(N)C1 [TAZ-248] | 5.95 | 
CCCN(Cc1ncco1)C(=O)C1=Cc2sc(CC3CNC3)cc2N=C(N)C1 [TAZ-256] | 5.47 | 
